The text below walks through data of the Biogen ADME set (Fang et al. 2023).

SMILES strings stand for the structures. In brackets after ≈: the same amount, converted by molar mass. Bounds are passed on as bounds.

As a reminder, the aqueous solubility is the dissolved amount per volume that the medium holds. Higher therefore signals a readily soluble substance.

The conditions of this series: for aqueous solubility: pH 6.8.

Consider `CC1CCN([C@H](c2ccc(F)cc2)c2ccc([C@@H](C)C(=O)O)cc2-c2ccc(C(F)(F)F)cc2)CC1`, for which the MDR1-MDCK efflux ratio was 1.99; the intrinsic clearance, human liver microsomes is 7.84 mL/min/kg; the intrinsic clearance, rat liver microsomes was found to be 17.7 mL/min/kg; the aqueous solubility worked out at 39.5 µg/mL (≈ 79.1 µM).

Compound `Nc1cnn(CC(=O)Nc2ccc(F)cc2)c1` registered an intrinsic clearance, human liver microsomes of 16.1 mL/min/kg; an intrinsic clearance, rat liver microsomes of 62.4 mL/min/kg; an aqueous solubility of 54 µg/mL (≈ 231 µM).

In turn, `c1ccc(C2(CNc3nc4ccccc4o3)CCOCC2)cc1` yielded an intrinsic clearance, human liver microsomes of 129 mL/min/kg and an intrinsic clearance, rat liver microsomes of 3400 mL/min/kg.

In the case of `Cc1cccc(CNC(=O)Cn2c(=O)oc3cccnc32)c1`, the intrinsic clearance, human liver microsomes was at most 4.74 mL/min/kg and the intrinsic clearance, rat liver microsomes is at most 10.7 mL/min/kg.

Turning to `C#CCN1CCN(Cc2nc(O)cc(C(F)(F)F)n2)CC1`, the intrinsic clearance, human liver microsomes was at most 4.74 mL/min/kg; the intrinsic clearance, rat liver microsomes is at most 10.7 mL/min/kg; the aqueous solubility turned out to be 42.9 µg/mL (≈ 143 µM).

As to `CCCC(=O)Nc1ccc(C)c2ncccc12`, the MDR1-MDCK efflux ratio came out at 0.743; the intrinsic clearance, human liver microsomes came out at 8.73 mL/min/kg; the intrinsic clearance, rat liver microsomes stood at 28.1 mL/min/kg; the aqueous solubility amounted to 50.2 µg/mL (≈ 220 µM).

Consider `Cc1ccc(CNC(=O)c2cccs2)cn1`, for which the MDR1-MDCK efflux ratio turned out to be 0.842; the intrinsic clearance, human liver microsomes was at most 4.74 mL/min/kg; the intrinsic clearance, rat liver microsomes is at most 10.7 mL/min/kg; the aqueous solubility is 52.3 µg/mL (≈ 225 µM).

Consider `Cc1csc(NC(=O)CCc2ccncc2)n1`, for which the MDR1-MDCK efflux ratio worked out at 0.876; the intrinsic clearance, human liver microsomes is at most 4.74 mL/min/kg; the intrinsic clearance, rat liver microsomes is 45.3 mL/min/kg; the aqueous solubility was 38.1 µg/mL (≈ 154 µM).

For `Cc1cccc(NC(=O)CN(C)Cc2nc3ccccc3c(=O)[nH]2)c1C`, the MDR1-MDCK efflux ratio was found to be 17.6; the intrinsic clearance, human liver microsomes was 54 mL/min/kg; the intrinsic clearance, rat liver microsomes amounted to 571 mL/min/kg.

`COc1ccc(-c2nnc3ccc(C(F)(F)F)cn23)cc1OC(C)C`: the MDR1-MDCK efflux ratio was 1.11; the intrinsic clearance, human liver microsomes was 31.2 mL/min/kg; the intrinsic clearance, rat liver microsomes stood at 132 mL/min/kg; the aqueous solubility came out at 22.9 µg/mL (≈ 65.2 µM).

For the compound `COC(=O)c1ccc2c(c1)CCN2S(=O)(=O)c1ccc(Cl)c(C(F)(F)F)c1`, the aqueous solubility was determined as 0.9 µg/mL (≈ 2.14 µM).

For `CCn1cnnc1CN(C)C1CCN(c2ccccc2F)CC1`, the MDR1-MDCK efflux ratio amounted to 2.68; the intrinsic clearance, human liver microsomes was at most 4.74 mL/min/kg; the intrinsic clearance, rat liver microsomes came out at 340 mL/min/kg.

Take `CSCC(=O)N1CCc2[nH]nc(-c3cccc(F)c3)c2C1`: the intrinsic clearance, human liver microsomes came out at 57 mL/min/kg; the intrinsic clearance, rat liver microsomes came to 960 mL/min/kg; the aqueous solubility came to 49.5 µg/mL (≈ 162 µM).

Turning to `Cc1nc(NCc2cn(C)nc2-c2cccs2)n(C)n1`, the MDR1-MDCK efflux ratio was determined as 12.7; the intrinsic clearance, human liver microsomes was at most 4.74 mL/min/kg; the intrinsic clearance, rat liver microsomes turned out to be 27.9 mL/min/kg.

`Cc1ccn(CCC(=O)N2CCc3nc4sccc4c(=O)n3CC2)n1` showed an intrinsic clearance, human liver microsomes of 17 mL/min/kg and an intrinsic clearance, rat liver microsomes of 242 mL/min/kg.

Consider `Cc1ccccc1-n1c(CC2CCN(C(=O)C3CC3)CC2)n[nH]c1=O`, for which the MDR1-MDCK efflux ratio came out at 117; the intrinsic clearance, human liver microsomes is at most 4.74 mL/min/kg; the intrinsic clearance, rat liver microsomes was found to be 26.8 mL/min/kg; the aqueous solubility worked out at 48 µg/mL (≈ 141 µM).

As for `N#Cc1ccccc1-c1ccc(-c2nccn2-c2cccnc2)o1`, the MDR1-MDCK efflux ratio was found to be 1.48; the intrinsic clearance, human liver microsomes was 87.9 mL/min/kg; the intrinsic clearance, rat liver microsomes is 719 mL/min/kg; the aqueous solubility amounted to 29.7 µg/mL (≈ 95.2 µM).

`O=C(O)c1ccc(CN2CC[C@H](c3nc4cc(Cl)ccc4o3)C2)cc1`: the MDR1-MDCK efflux ratio turned out to be 1.11; the intrinsic clearance, human liver microsomes is at most 4.74 mL/min/kg; the intrinsic clearance, rat liver microsomes was 17.8 mL/min/kg; the aqueous solubility is 32.4 µg/mL (≈ 90.8 µM).

Consider `COc1ncc(C(=O)NCc2cnn3cccnc23)cn1`, for which the MDR1-MDCK efflux ratio was found to be 2.54; the intrinsic clearance, human liver microsomes was at most 4.74 mL/min/kg; the intrinsic clearance, rat liver microsomes was at most 10.7 mL/min/kg.

As to `O=C(CSc1ccc2c(c1)OCCO2)NC1CCCC1`, the MDR1-MDCK efflux ratio turned out to be 0.73; the intrinsic clearance, human liver microsomes was found to be 83.8 mL/min/kg; the intrinsic clearance, rat liver microsomes worked out at 5820 mL/min/kg.

For `COc1ccc(CCCNc2nnc(C)o2)cc1`, the intrinsic clearance, human liver microsomes is at most 4.74 mL/min/kg; the intrinsic clearance, rat liver microsomes is 151 mL/min/kg; the aqueous solubility came out at 25.4 µg/mL (≈ 103 µM).

For the compound `CC(=O)NCc1cc2n(n1)CCN(C1Cc3ccccc3C1)C2`, the MDR1-MDCK efflux ratio was 1.12; the intrinsic clearance, human liver microsomes is at most 4.74 mL/min/kg; the intrinsic clearance, rat liver microsomes was at most 10.7 mL/min/kg.

As for `Cc1nc2ccccc2n1Cc1ccc(C(=O)O)cc1`, the MDR1-MDCK efflux ratio stood at 2.75; the intrinsic clearance, human liver microsomes is at most 4.74 mL/min/kg; the intrinsic clearance, rat liver microsomes was at most 10.7 mL/min/kg; the aqueous solubility amounted to 35.4 µg/mL (≈ 133 µM).

In the case of `CN(Cc1cscn1)c1nc2c(cc1C#N)CCC2`, the MDR1-MDCK efflux ratio turned out to be 0.641; the intrinsic clearance, human liver microsomes amounted to 94.9 mL/min/kg; the intrinsic clearance, rat liver microsomes worked out at 1180 mL/min/kg; the aqueous solubility was found to be 33.6 µg/mL (≈ 124 µM).

As for `CSCC(=O)N1CCN(C(=O)CSC)C2(CCCCC2)C1`, the MDR1-MDCK efflux ratio is 5.33; the intrinsic clearance, human liver microsomes stood at 57.8 mL/min/kg; the intrinsic clearance, rat liver microsomes was 868 mL/min/kg; the aqueous solubility is 50.5 µg/mL (≈ 153 µM).

`CC(C)(C)OC(=O)NCc1ccc(C(=N)NC(=O)OCc2ccccc2)cc1`: the MDR1-MDCK efflux ratio came to 2.23; the intrinsic clearance, human liver microsomes turned out to be 84.3 mL/min/kg; the intrinsic clearance, rat liver microsomes turned out to be 1300 mL/min/kg; the aqueous solubility was found to be 2.59 µg/mL (≈ 6.75 µM).

As for `COc1ccc(-c2noc([C@@H]3CCCN3Cc3cccnc3)n2)cn1`, the MDR1-MDCK efflux ratio stood at 0.759; the intrinsic clearance, human liver microsomes amounted to 98 mL/min/kg; the intrinsic clearance, rat liver microsomes was 1240 mL/min/kg; the aqueous solubility was 26.2 µg/mL (≈ 77.7 µM).

As to `COc1ccc(CN2CCN(C(=O)C3CCN(C(=O)C4CC4)CC3)CC2)cc1`, the MDR1-MDCK efflux ratio is 7.58; the intrinsic clearance, human liver microsomes is at most 4.74 mL/min/kg; the intrinsic clearance, rat liver microsomes was determined as 50.4 mL/min/kg.

Regarding `O=C(CC1CCCC1)NCc1nnc2n1CCC2`, the MDR1-MDCK efflux ratio is 51.7; the intrinsic clearance, human liver microsomes was at most 4.74 mL/min/kg; the intrinsic clearance, rat liver microsomes is at most 10.7 mL/min/kg; the aqueous solubility turned out to be 31.5 µg/mL (≈ 127 µM).

As to `CSCC[C@@H](CO)n1ccnc1-c1oc2ccccc2c1C`, the MDR1-MDCK efflux ratio stood at 3.51; the intrinsic clearance, human liver microsomes turned out to be 167 mL/min/kg; the intrinsic clearance, rat liver microsomes turned out to be 2000 mL/min/kg; the aqueous solubility was 73.2 µg/mL (≈ 231 µM).

The compound `Cc1cccc(/C=N/Nc2cc(N3CCOCC3)n3nc(-c4ccncc4)cc3n2)c1` yielded an intrinsic clearance, human liver microsomes of 32.1 mL/min/kg.

Regarding `O=C(CC1CCCC1)NCc1ccncc1`, the aqueous solubility amounted to 58 µg/mL (≈ 266 µM).

For the compound `CCCn1ncnc1-c1ccccc1SC`, the MDR1-MDCK efflux ratio turned out to be 0.798; the intrinsic clearance, human liver microsomes came to 82.5 mL/min/kg; the intrinsic clearance, rat liver microsomes was found to be 765 mL/min/kg; the aqueous solubility came to 19.9 µg/mL (≈ 85.2 µM).

In the case of `COc1ccc(CC2CN3CCN(C(=O)OCc4ccccc4)CC3CO2)cc1` (configuration not stated), the MDR1-MDCK efflux ratio worked out at 0.797; the intrinsic clearance, human liver microsomes was determined as 33.2 mL/min/kg; the intrinsic clearance, rat liver microsomes stood at 861 mL/min/kg.

`Cc1nn(C)c(C)c1C(=O)NCc1ccccc1`: the MDR1-MDCK efflux ratio amounted to 0.786; the intrinsic clearance, human liver microsomes is at most 4.74 mL/min/kg; the intrinsic clearance, rat liver microsomes is at most 10.7 mL/min/kg; the aqueous solubility was determined as 54.7 µg/mL (≈ 225 µM).

`COc1ccccc1C(=O)Nc1cccc(C#N)c1`: the MDR1-MDCK efflux ratio was found to be 0.246; the intrinsic clearance, human liver microsomes was determined as 85.5 mL/min/kg; the intrinsic clearance, rat liver microsomes is 80.9 mL/min/kg; the aqueous solubility came to 33 µg/mL (≈ 131 µM).

For `O=C(NCc1ccc(F)cc1)c1ccccn1`, the MDR1-MDCK efflux ratio was found to be 0.543; the intrinsic clearance, human liver microsomes was at most 4.74 mL/min/kg; the intrinsic clearance, rat liver microsomes amounted to 21.1 mL/min/kg; the aqueous solubility was 34.8 µg/mL (≈ 151 µM).

Regarding `Cc1cc(C)cc(C(=O)Nc2c(C#N)cnn2C)c1`, the MDR1-MDCK efflux ratio is 1.1; the intrinsic clearance, human liver microsomes was determined as 27.3 mL/min/kg; the intrinsic clearance, rat liver microsomes is 80.2 mL/min/kg; the aqueous solubility stood at 38.2 µg/mL (≈ 150 µM).

As to `c1ccc(N2CCOCC2)c(CNc2cc(N3CCCC3)ncn2)c1`, the MDR1-MDCK efflux ratio stood at 2.09; the intrinsic clearance, human liver microsomes stood at 190 mL/min/kg; the intrinsic clearance, rat liver microsomes amounted to 1520 mL/min/kg.

Consider `Cc1ncsc1CNc1nnc(-c2ccncc2)o1`, for which the MDR1-MDCK efflux ratio was 3.75; the intrinsic clearance, human liver microsomes amounted to 8.9 mL/min/kg; the intrinsic clearance, rat liver microsomes was 61.5 mL/min/kg.

Compound `Clc1cccc(Nc2ncnc3[nH]ncc23)c1Cl` displayed an aqueous solubility of 3.23 µg/mL (≈ 11.5 µM).

In turn, `CN(CCN(C)C1CCCC1)C(=O)c1ccc(-c2nc[nH]n2)cc1` registered an intrinsic clearance, human liver microsomes of at most 4.74 mL/min/kg; an intrinsic clearance, rat liver microsomes of 19.6 mL/min/kg; an aqueous solubility of 36.8 µg/mL (≈ 112 µM).

With `Cc1ccc(-c2csc(CC(N)=O)n2)cc1C`, the MDR1-MDCK efflux ratio turned out to be 0.752 and the aqueous solubility turned out to be 35.9 µg/mL (≈ 146 µM).

Regarding `Cc1c(C(=O)Nc2cnccn2)cccc1-c1ccccn1`, the intrinsic clearance, human liver microsomes is at most 4.74 mL/min/kg and the intrinsic clearance, rat liver microsomes amounted to 496 mL/min/kg.

With `COCC(=O)Nc1ccc(C)c(NC(=O)[C@H](OC)c2ccccc2)c1`, the MDR1-MDCK efflux ratio was 2.8; the intrinsic clearance, human liver microsomes worked out at 85.2 mL/min/kg; the intrinsic clearance, rat liver microsomes came to 44.9 mL/min/kg.

Turning to `O=C(COCc1nc2ccccc2s1)N1CCC(n2c(=O)[nH]c3ccccc32)CC1`, the intrinsic clearance, human liver microsomes came out at 68.6 mL/min/kg and the intrinsic clearance, rat liver microsomes came to 1020 mL/min/kg.

For the compound `CC(=O)Nc1cnn(CC2CCN(C)CC2)c1`, the MDR1-MDCK efflux ratio is 3.56; the intrinsic clearance, human liver microsomes is at most 4.74 mL/min/kg; the intrinsic clearance, rat liver microsomes is at most 10.7 mL/min/kg; the aqueous solubility stood at 23.5 µg/mL (≈ 99.4 µM).

Regarding `O=C(Cc1cccc(I)c1)N1CC(CO)C1`, the MDR1-MDCK efflux ratio came to 1.59; the intrinsic clearance, human liver microsomes was at most 4.74 mL/min/kg; the intrinsic clearance, rat liver microsomes is at most 10.7 mL/min/kg; the aqueous solubility is 42.1 µg/mL (≈ 127 µM).
